Measurements taken from paper PMC4865847, “Putative histidine kinase inhibitors with antibacterial effect against multi-drug resistant clinical isolates identified by in vitro and in silico screens” (Scientific Reports, 2016).
In brackets after ≈: the same amount, converted by molar mass. Several values for one entry are separate records, joined by “and”; a condition that tells them apart may be missing. Equal entries are not always repeated. Where two headings read alike, the source gives them in different places.

What was measured:
E. coli PhoR (PhoR^E) [1] = target: T1, E. coli PhoR (PhoR^E) (Escherichia coli, UniProt P08400); assay: In vitro autophosphorylation kinase assay with γ-32P-ATP, PhoR^E; assay type: biochemical; conditions: for IC50: autophosphorylation, one time point (30 sec), 10% DMSO, read-out: IC50 PhoR^E
T1 construct: The catalytic portion (DHp and CA domain) of E. coli PhoR (PhoR^E); made in house; host or cells: E. coli RIL
T1 sequence (P08400 210-425): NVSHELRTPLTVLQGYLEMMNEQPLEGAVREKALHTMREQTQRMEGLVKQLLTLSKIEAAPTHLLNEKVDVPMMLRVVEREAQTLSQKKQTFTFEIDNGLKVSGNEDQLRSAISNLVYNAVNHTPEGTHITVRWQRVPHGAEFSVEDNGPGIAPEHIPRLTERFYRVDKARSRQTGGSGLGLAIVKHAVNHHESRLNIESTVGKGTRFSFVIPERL
How it was run: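 Histidine kinase (0.12 mg/ml, ≈4 μM) incubated with up to 20 mM fragment in 50 mM Tris HCl pH 8.5, 50 mM KCl, 5 mM MgCl2, 0.5 mM EDTA, 0.1 mM DTT; started with 0.1 μCi/μl γ-32P-ATP (0.03–0.06 μM ATP final). Phosphoprotein quantified by SDS-PAGE and phosphor-imaging, curve-fitted; DMSO controls.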

Staphylococcus aureus = assay: Antibacterial susceptibility testing (MIC/MBC), S. aureus; assay type: cell-based; conditions: for MIC / MBC: Staphylococcus aureus; for MBC: read-out: MBC S. aureus DSM 20231
Procedure: (§1) Minimal inhibitory concentrations (MICs) were determined following a standard double-dilution method. […] For S. pneumoniae MICs were determined by adapting the standard double-dilution method to anaerobic conditions and of this microorganism (use of Todd Hewitt Yeast extract with 200 U/mL of catalase and continuous monitoring of growth).

[2] = tested on: Staphylococcus epidermidis; assay: Antibacterial susceptibility testing (MIC/MBC), S. epidermidis; assay type: cell-based; conditions: for MBC / MIC: Staphylococcus epidermidis
Procedure: as §1

Escherichia coli = assay: Antibacterial susceptibility testing (MIC/MBC), E. coli; assay type: cell-based; conditions: Escherichia coli
Procedure: as §1

Streptococcus suis = assay: Antibacterial susceptibility testing (MIC), S. suis; assay type: cell-based; conditions: Streptococcus suis, read-out: MIC Streptococcus suis 3881/S10, strain 3881/S10
How it was run: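 Compounds were serially double-diluted against each strain. The lowest concentration with no visible growth was recorded as the MIC. Dilutions around the MIC were then plated or regrown in MH medium to define the MBC. Pneumococcal testing ran anaerobically with catalase (200 U/mL) in Todd Hewitt yeast extract under continuous growth monitoring.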

Acinetobacter baumannii = assay: Antibacterial susceptibility testing (MIC), A. baumannii; assay type: cell-based
How it was run: (§2)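 Susceptibility is given as MIC by the standard double-dilution method, defined as no visible growth. For S. pneumoniae, conditions were anaerobic with Todd Hewitt yeast extract plus 200 U/mL catalase.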

[3] = tested on: Stenotrophomonas maltophilia; assay: Antibacterial susceptibility testing (MIC), S. maltophilia; assay type: cell-based
How it was run: as §2

Klebsiella pneumoniae = assay: Antibacterial susceptibility testing (MIC), K. pneumoniae; assay type: cell-based; conditions: for MIC: Klebsiella pneumoniae, ATCC700603, strain ATCC 700603
How it was run: as §2

Pseudomonas aeruginosa = assay: Antibacterial susceptibility testing (MIC), P. aeruginosa; assay type: cell-based; conditions: strain ATCC 27853; for MIC: Pseudomonas aeruginosa, ATCC27853
How it was run: as §2

Hemolysis assay = assay type: cell-based; conditions: human
Procedure: Hemolytic activity against human erythrocytes taken from a healthy donor was measured as previously described. The hemolysis experiments were carried out in accordance with the guidelines of the United Arab Emirates University (UAEU) Research Ethics Review Board. All experimental protocols were approved by the Research Ethics Review Board of UAEU and informed consent was obtained from all donors.

E. coli PhoR (PhoR^E) [4] = target: T1, E. coli PhoR (PhoR^E); assay: Aggregation analysis by native-PAGE, PhoR^E; conditions: 2 mM (S5 and S6 5 mM), 10% DMSO
Procedure: (§3) E. coli PhoR and EnvZ, and S. aureus PhoR ([…], final concentration) were prepared in kinase buffer. […] DMSO in the assays was maintained to a final concentration 10% (v/v). After 30 min of incubation at room temperature Native polyacrylamide gel electrophoresis (Native-PAGE) loading buffer was added and samples loaded. Coomassie blue staining was used for protein visualization.

S. aureus PhoR (PhoR^S) = S. aureus PhoR (PhoR^S) (Staphylococcus aureus, UniProt Q2FXN7); assay: Aggregation analysis by native-PAGE, PhoR^S; conditions: 2 mM (S5 and S6 5 mM), 10% DMSO
Sequence of S. aureus PhoR (PhoR^S) (Q2FXN7 entry or part of it): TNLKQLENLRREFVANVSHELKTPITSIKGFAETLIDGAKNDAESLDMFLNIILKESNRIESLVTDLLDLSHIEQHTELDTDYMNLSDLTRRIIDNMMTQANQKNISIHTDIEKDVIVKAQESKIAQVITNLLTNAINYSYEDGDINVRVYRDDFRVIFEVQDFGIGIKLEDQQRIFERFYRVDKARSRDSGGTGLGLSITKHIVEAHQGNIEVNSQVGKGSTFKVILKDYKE
Procedure: as §3

[5] = Solubility in kinase buffer; assay type: physicochemical; conditions: kinase buffer in the presence of 10% DMSO
[6] = ATCC reference strain 25293, read-out: MIC S. aureus 25293
[7] = DSM20231, strain DSM 20231, read-out: MIC S. aureus DSM 20231
[8] = MRSA clinical isolate 145/08, read-out: MIC S. aureus 145/08
[9] = MRSA clinical isolate 274/08, read-out: MIC S. aureus 274/08
[10] = MRSA, MRSA clinical isolate T4/6, read-out: MIC S. aureus T4/6
[11] = MRSA, MRSA clinical isolate V4180, read-out: MIC S. aureus V4180
[12] = DSM20044, strain DSM 20044, read-out: MIC S. epidermidis DSM 20044
[13] = clinical isolate T7/3, read-out: MIC S. epidermidis T7/3
[14] = clinical isolate T37/8, read-out: MIC S. epidermidis T37/8
[15] = clinical isolate T6119, read-out: MIC S. epidermidis T6119
[16] = strain RP62A (biofilm producer), read-out: MIC S. epidermidis RP62A
[17] = strain RP62A/1 (non-biofilm producer), read-out: MIC S. epidermidis RP62A/1
[18] = summary over clinical isolates, read-out: MICs for S. epidermidis clinical isolates
[19] = ATCC25276, strain ATCC 25276, read-out: MIC E. coli ATCC 25276
[20] = strain CFT 073, read-out: MIC E. coli CFT 073
[21] = MDR clinical isolate NM8, read-out: MIC A. baumannii NM8
[22] = clinical isolate B32/1, read-out: MIC S. maltophilia B32/1

In the case of `Nc1nc(-c2ccc(Br)cc2)cs1` [F1, 4-(4-bromophenyl)-1,3-thiazol-2-amine], the IC50 (E. coli PhoR (PhoR^E) [1]) is reported as ~2000 µM and 2000 µM, the MIC (Staphylococcus aureus; [6]) is reported as 125 µg/mL (≈ 490 µM) and the MBC (Staphylococcus aureus; DSM20231, strain DSM 20231) is reported as over 500 µg/mL. For the same compound, the MIC (Staphylococcus aureus; [7]) was 25 µg/mL (≈ 98 µM), the MIC (Staphylococcus aureus; [8]) was 125 µg/mL (≈ 490 µM) and the MIC (Staphylococcus aureus; [9]) was 125 µg/mL (≈ 490 µM). It also gave an MIC (Staphylococcus aureus; [10]) of 125 µg/mL (≈ 490 µM), an MIC (Staphylococcus aureus; [11]) of 125 µg/mL (≈ 490 µM) and an MIC (Staphylococcus aureus; MRSA, summary over strains, read-out: MICs for the MRSA strains and S. aureus 25293) of 125 to 500 µg/mL (≈ 490 to 1960 µM). For the same compound, the MBC ([2]; DSM20044, strain DSM 20044) was 250 µg/mL (≈ 980 µM), the MIC [2, 12] was 4 µg/mL (≈ 15.7 µM) and the MIC [2, 13] was 63 µg/mL (≈ 247 µM). For the same compound, the MIC [2, 14] was over 500 µg/mL, the MIC [2, 15] was over 500 µg/mL and the MIC [2, 16] was over 500 µg/mL. For the same compound, the MIC [2, 17] was 250 µg/mL (≈ 980 µM), the MIC [2, 18] was 63 µg/mL (≈ 247 µM) and the MIC (Escherichia coli; [19]) was over 500 µg/mL. For the same compound, the MIC (Escherichia coli; [20]) was over 500 µg/mL, the MIC (Streptococcus suis) was over 500 µg/mL and the MIC (Acinetobacter baumannii; [21]) was over 500 µg/mL. For the same compound, the MIC [3, 22] was over 500 µg/mL, the MIC (Klebsiella pneumoniae) was over 500 µg/mL and the MIC (Pseudomonas aeruginosa) was over 500 µg/mL. For the same compound, the HC50 (Hemolysis assay) was over 500 µg/mL, the “HK aggregation, PhoR^E” value (E. coli PhoR (PhoR^E) [4]) was “do not cause HK aggregation” and the “HK aggregation, PhoR^S” value (S. aureus PhoR (PhoR^S)) was “do not cause HK aggregation”. The “solubility in kinase buffer” value [5] was “limited solubility”.
In the case of `CC[C@H](c1ccc(O)cc1)[C@@H](CC)c1ccc(F)cc1` [S1.13, 4-[(3S,4R)-4-(4-fluorophenyl)hexan-3-yl]phenol], the inhibition at 2000 µM (E. coli PhoR (PhoR^E) [1]; 2 mM, 30 sec, compared to negative control) is reported as over 75%, the IC50 (E. coli PhoR (PhoR^E) [1]) is reported as 16 µM and the MIC (Staphylococcus aureus; [6]) is reported as 8 µg/mL (≈ 29.4 µM). For the same compound, the MBC (Staphylococcus aureus; DSM20231, strain DSM 20231) was 33 µg/mL (≈ 121 µM), the MIC (Staphylococcus aureus; [7]) was 8 µg/mL (≈ 29.4 µM) and the MIC (Staphylococcus aureus; MRSA clinical isolate 127/08, read-out: MIC S. aureus 127/08) was 16 µg/mL (≈ 58.7 µM). For the same compound, the MIC (Staphylococcus aureus; [8]) was 8 µg/mL (≈ 29.4 µM), the MIC (Staphylococcus aureus; [9]) was 16 µg/mL (≈ 58.7 µM) and the MIC (Staphylococcus aureus; MRSA, MRSA clinical isolate S908, read-out: MIC S. aureus S908) was 16 µg/mL (≈ 58.7 µM). It also gave an MIC (Staphylococcus aureus; [10]) of 8 µg/mL (≈ 29.4 µM), an MIC (Staphylococcus aureus; [11]) of 8 µg/mL (≈ 29.4 µM) and an MIC (Staphylococcus aureus; MRSA, summary over strains, read-out: MICs for the S. aureus reference strains and the MRSA strains) of 8 to 16 µg/mL (≈ 29.4 to 58.7 µM). For the same compound, the MIC (Staphylococcus aureus; MRSA, summary over susceptible MRSA clinical isolates, read-out: MICs for MRSA strains) was 8 to 16 µg/mL (≈ 29.4 to 58.7 µM), the “MBC S. aureus DSM 20231” value (Staphylococcus aureus; strain DSM 20231) was 31 µg/mL (≈ 114 µM) and the “MIC S. aureus DSM 20231” value (Staphylococcus aureus; strain DSM 20231) was 8^¥ μg/ml. For the same compound, the “bacteriostatic or bactericidal for S. aureus DSM 20231” value (Staphylococcus aureus; strain DSM 20231) was “bactericidal”, the MBC ([2]; DSM20044, strain DSM 20044) was 8 µg/mL (≈ 29.4 µM) and the MIC [2, 12] was 1 µg/mL (≈ 3.67 µM). For the same compound, the MIC [2, 13] was 8 µg/mL (≈ 29.4 µM), the MIC [2, 14] was 16 µg/mL (≈ 58.7 µM) and the MIC [2, 15] was 8 µg/mL (≈ 29.4 µM). The MIC [2, 16] was 8 µg/mL (≈ 29.4 µM), the MIC [2, 17] was 8 µg/mL (≈ 29.4 µM) and the MIC [2, 18] was 8 to 16 µg/mL (≈ 29.4 to 58.7 µM). For the same compound, the “MIC S. epidermidis DSM 20044” value ([2]; strain DSM 20044) was 1^¥ μg/ml, the “bacteriostatic or bactericidal for S. epidermidis DSM 20044” value ([2]; strain DSM 20044) was “bactericidal” and the MIC (Escherichia coli; [19]) was over 500 µg/mL. It also gave an MIC (Escherichia coli; [20]) of over 500 µg/mL, an MIC (Streptococcus suis) of 8 µg/mL (≈ 29.4 µM) and an MIC (Acinetobacter baumannii; [21]) of over 500 µg/mL. For the same compound, the MIC (Acinetobacter baumannii; MDR clinical isolate NM35, read-out: MIC A. baumannii NM35) was over 500 µg/mL, the MIC (Acinetobacter baumannii; MDR clinical isolate NM75, read-out: MIC A. baumannii NM75) was over 500 µg/mL and the MIC (Acinetobacter baumannii; MDR clinical isolate NM109, read-out: MIC A. baumannii NM109) was over 500 µg/mL. It also gave an MIC (Acinetobacter baumannii; MDR clinical isolate NM124, read-out: MIC A. baumannii NM124) of over 500 µg/mL, an MIC ([3]; clinical isolate B5/5, read-out: MIC S. maltophilia B5/5) of over 500 µg/mL and an MIC ([3]; clinical isolate B6/2, read-out: MIC S. maltophilia B6/2) of over 500 µg/mL. For the same compound, the MIC [3, 22] was over 500 µg/mL, the MIC (Klebsiella pneumoniae) was over 500 µg/mL and the “MIC K. pneumoniae ATCC700603” value (Klebsiella pneumoniae; strain ATCC 700603) was over 500 µg/mL. For the same compound, the MIC (Pseudomonas aeruginosa) was over 500 µg/mL, the “MIC P. aeruginosa ATCC 27853” value (Pseudomonas aeruginosa) was over 500 µg/mL and the HC50 (Hemolysis assay) was 277 µg/mL. The “HK aggregation, PhoR^E” value (E. coli PhoR (PhoR^E) [4]) was “do not cause HK aggregation”, the “HK aggregation, PhoR^S” value (S. aureus PhoR (PhoR^S)) was “do not cause HK aggregation” and the “solubility in kinase buffer” value [5] was “good solubility”.
